According to patent publication US9266852B2, “Daidzein derivative, pharmaceutically acceptable salt and preparation method thereof, and pharmaceutical composition containing same” (ANHUI BIOCHEM BIO-PHARMACEUTICAL CO., LTD, priority 2011, dated 2016):
Structures can show the parent of a compound that is named as a salt.

Columns and labels:
thrombus = experiment: Formation time and length of thrombus in rabbit blood, thrombosis instrument (antithrombotic effect research 2); assay type: in vivo, rabbits; conditions: for antithrombotic effect after oral administration, in words: conclusion from table 7, rabbits; for Lengths of thrombus, after administration / Thrombus formation times (X ± s), after administration / Lengths of thrombus, before administration / Thrombus formation times (X ± s), before administration: rabbits; for Lengths of thrombus, after administration: 15 minutes rotation; for Thrombus formation times (X ± s), after administration: 30 minutes after last administration; for Lengths of thrombus, before administration / Thrombus formation times (X ± s), before administration: baseline before administration
Protocol: 30 rabbits were taken and randomly divided into five groups, each group was administered intragastrically with 15 mg/kg pueraria daidzein, 22 mg/kg compound of the example of the present application, 28 mg/kg 4,7-disubstituted daidzein, 22 mg/kg 4-substituted daidzein and 22 mg/kg USP compound (the converted dose of each compound is equivalent to the dose of the daidzein, since the daidzein is difficult to dissolve in water, 50% propylene glycol aqueous solution is used to dissolve, and other compounds were dissolved with water to achieve a suitable concentration), 2 ml blood was taken from the heart before administration, and after 7 consecutive days of administration, 2 ml blood was taken from the heart 30 minutes after the last administration, and injected immediately into the rotating ring of the thrombosis instrument, and rotated at 15-17 rpm under 37° C., and the rotating time of the thrombus alone with the ring was recorded, which is defined as thrombus formation time of fibrin, the rotation was stopped after 15 minutes, the thrombus was taken out, and the length of the thrombus was measured.

[1] = test system: euglobulin lysis time of guinea pigs; experiment: Euglobulin lysis time of guinea pigs (antithrombotic effect research 1); assay type: in vivo; conditions: for antithrombotic effect after oral administration, in words: conclusion from table 6, guinea pigs; for Optimal dissolution times (X ± s), after administration / Fibrinolytic enzyme activities, after administration / Optimal dissolution times (X ± s), before administration / Fibrinolytic enzyme activities, before administration: guinea pigs; for Optimal dissolution times (X ± s), after administration: 30 minutes after last administration; for Fibrinolytic enzyme activities, after administration / Fibrinolytic enzyme activities, before administration: =10000/optimal dissolution time (min); for Optimal dissolution times (X ± s), before administration / Fibrinolytic enzyme activities, before administration: baseline before administration
Protocol: 30 guinea pigs were taken and randomly divided into five groups, each group was administered intragastrically with 25 mg/kg pueraria daidzein, 36 mg/kg compound of the example of the present application, 47 mg/kg 4,7-disubstituted daidzein, 36 mg/kg 4-substituted daidzein, and 36 mg/kg USP compound (the converted dose of each compound is equivalent to the dose of the daidzein, since the daidzein is difficult to dissolve in water, 50% propylene glycol aqueous solution is used to dissolve, and other compounds were dissolved with water to achieve a suitable concentration), 1.5 ml blood was taken from the heart before administration, and after 7 consecutive days of administration, 1.5 ml blood was taken from the heart 30 minutes after the last administration, and put into a sodium citrate anti-cruor tube, and the plasma was separated by centrifugation, then 0.5 ml plasma was taken and added with 9 ml distilled water and 0.1 ml of 1% acetic acid solution, and the mixture was centrifugated after being refrigerated for 30 minutes, then the resulting precipitate was dissolved with 0.5 ml sodium borate buffer (pH9.0), and the dissolution time was recorded as euglobulin lysis time, it can be obtained through calculation that fibrinolytic enzyme activity (u)=10000/optimal dissolution time (min).

[2] = Experiment of solubility: solvent equilibrium experiment in methanol, gravimetric analysis; assay type: physicochemical; conditions: for solubility (solvent equilibrium experiment): methanol, 25°C, at least 20 hours, gravimetric, approximate
Protocol: in the water bath at 25±5° C., the solvent equilibrium experiment was performed on the above materials for at least 20 hours by using 1 mL methanol, then the solution was filtered and dried in the air for 10 minutes, and after the solvent was evaporated under vacuum, the approximate solubilities of the above materials in the solvent was measured through gravimetric analysis, with results shown in table 1.

[3] = test system: mice with hypoxia tolerance at normal pressure; experiment: Hypoxia tolerance of mice at normal pressure (survival time in closed jar); assay type: in vivo; conditions: for effect on hypoxia tolerance time, in words: conclusion from table 4, mice, intraperitoneal; for Survival times (X ± s) / Prolongation rates (survival time): mice; for Survival times (X ± s): 20 min after administration, n = 10, control group 22.5 ± 2.6; for Prolongation rates (survival time): versus control group
Protocol: 70 mice were taken and randomly divided into seven groups, except the blank group which was not administered and the saline group which was administered with the same volume of saline, the remaining five groups were respectively injected intraperitoneally with 25 mg/kg pueraria daidzein, 36 mg/kg compound of the example of the present application, 47 mg/kg 4,7-disubstituted daidzein, 36 mg/kg 4-substituted daidzein and 36 mg/kg USP compound (the converted dose of each compound is equivalent to the dose of the daidzein, since the daidzein is difficult to dissolve in water, 50% propylene glycol aqueous solution is used to dissolve, and other compounds were dissolved with water to achieve a suitable concentration), 20 min after administration, the mice were put into a 250 ml grinding jar (where 10 g soda lime was placed), with one mouse in each jar, and the jar was capped tightly after the mouse was put into the jar, then the survival time of the mice was immediately recorded by a stopwatch.

decapitated mice = experiment: Acute cerebral ischemia in mice (gasping time of decapitated mice); assay type: in vivo; conditions: for effect on acute ischemia tolerance time, in words: conclusion from table 5, mice, intraperitoneal; for Gasping times (X ± s) / Prolongation rates (gasping time): decapitated mice; for Gasping times (X ± s): 20 min after administration, n = 10, control group 18.5 ± 3.1; for Prolongation rates (gasping time): versus control group
Protocol: 70 mice were taken and randomly divided into seven groups, except the blank group which was not administered and the saline group which was administered with the same volume of saline, the remaining five groups were respectively injected intraperitoneally with 25 mg/kg pueraria daidzein, 36 mg/kg compound of the example of the present application, 47 mg/kg 4,7-disubstituted daidzein, 36 mg/kg 4-substituted daidzein and 36 mg/kg USP compound (the converted dose of each compound is equivalent to the dose of the daidzein, since the daidzein is difficult to dissolve in water, 50% propylene glycol aqueous solution is used to dissolve, and other compounds were dissolved with water to achieve a suitable concentration), 20 min after administration, the mice were decapitated rapidly from behind the ear, then the time starting from decapitation to the last gasp was recorded.

rat in vitro thrombosis = experiment: Anti-thrombosis experiment: rat in vitro thrombosis after oral administration (artery-jugular vein blood flow bypass method); assay type: in vivo, rat (Wistar, male)
Protocol: 1. Rat in vitro general artery-jugular vein blood flow in the bypass method (please refer to “Journal of Changchun University of Traditional Chinese Medicine”, 2011, Volume 27, Issue 4, Pages 514-518, Yunfei Sun, Min Shi, “Study on the Effect of Pueraria Injection on Thrombosis Formation, Cerebral Ischemia and Platelet Aggregation in Rats);
1. Experiment in vivo: the dose is 50 mg/kg, 100 mg/kg, 200 mg/kg, and the animals are administered intragastrically once daily at 1 ml/100 g […] for 3 consecutive days;
2. Positive control, the animals are administered with acetylsalicylic acid (produced by Northwest Second Synthetic Pharmaceutical Factory) at 45 mg/kg in the experiment in vivo.

[4] = test system: whole blood in vitro thrombosis of normal rats; experiment: Anti-thrombosis experiment: whole blood in vitro thrombosis after in vitro administration (in vitro thrombosis instrument method); conditions: Rattus norvegicus, read-out: Thrombosis inhibition rates
Protocol: ii) Experimental animals: Wistar, which is a male rat outbreeding closed system, purchased from the Institute of Laboratory Animal Sciences, Chinese Academy of Medical Sciences, weighing 242±11.2 g, the animals are divided into 5 groups with 10 animals in each group.
Experiment in vitro: the dose is 1.56 mg/kg, 3.12 mg/kg, 6.25 mg/kg, and the animals are administered once directly.
Blank control, the animals are administered with the same volume of distilled water in the experiment in vivo; and administered with the same volume of saline in the experiment in vitro;

[5] = 15 mg/kg intragastrically 7 consecutive days
[6] = 22 mg/kg intragastrically 7 consecutive days
[7] = 36 mg/kg intragastrically 7 consecutive days
[8] = 36 mg/kg intragastrically 7 days

| Structure (SMILES) | solubility (solvent equilibrium experiment) [2] [mg/g] | Lengths of thrombus, after administration (thrombus; [6]) [cm] | Thrombus formation times (X ± s), after administration (thrombus; [6]) [min] | Lengths of thrombus, before administration (thrombus; 22 mg/kg group) [cm] | Thrombus formation times (X ± s), before administration (thrombus; 22 mg/kg group) [min] | Optimal dissolution times (X ± s), after administration [1, 7] [min] | Fibrinolytic enzyme activities, after administration [1, 8] [u] | Optimal dissolution times (X ± s), before administration ([1]; 36 mg/kg group) [min] | Fibrinolytic enzyme activities, before administration ([1]; 36 mg/kg group) [u] | Survival times (X ± s) ([3]; 36 mg/kg intraperitoneally) [min] | Gasping times (X ± s) (decapitated mice; 36 mg/kg intraperitoneally) [s] | Prolongation rates (gasping time) (decapitated mice; 36 mg/kg intraperitoneally) [%] | also measured |
| --- | --- | --- | --- | --- | --- | --- | --- | --- | --- | --- | --- | --- | --- |
| O=c1c(-c2ccc(O)cc2)coc2cc(O)ccc12 [Pueraria daidzein, daidzein] | 16.8 |  |  |  |  |  |  |  |  |  |  |  | antithrombotic effect after oral administration, in words (thrombus): weak antithrombotic effect; Lengths of thrombus, after administration (thrombus; [5]): 12.8 ± 1.49 cm; Thrombus formation times (X ± s), after administration (thrombus; [5]): 7.18 ± 1.27 min; Lengths of thrombus, before administration (thrombus; 15 mg/kg group): 14.2 ± 1.95 cm; Thrombus formation times (X ± s), before administration (thrombus; 15 mg/kg group): 6.21 ± 1.23 min; antithrombotic effect after oral administration, in words [1]: weak antithrombotic effect; Optimal dissolution times (X ± s), after administration ([1]; 25 mg/kg intragastrically 7 consecutive days): 27.3 ± 8.4 min; Fibrinolytic enzyme activities, after administration ([1]; 25 mg/kg intragastrically 7 days): 366.3 u; Optimal dissolution times (X ± s), before administration ([1]; 25 mg/kg group): 34.5 ± 10.1 min; Fibrinolytic enzyme activities, before administration ([1]; 25 mg/kg group): 289.9 u; effect on hypoxia tolerance time, in words [3]: poor effect; Survival times (X ± s) ([3]; 25 mg/kg intraperitoneally): 28.1 ± 5.3 min; Prolongation rates (survival time) ([3]; 25 mg/kg intraperitoneally): 24.9%; effect on acute ischemia tolerance time, in words (decapitated mice): poor effect; Gasping times (X ± s) (decapitated mice; 25 mg/kg intraperitoneally): 23.1 ± 6.2 s; Prolongation rates (gasping time) (decapitated mice; 25 mg/kg intraperitoneally): 24.9% |
| CCN(CC)CC(=O)Oc1ccc2c(=O)c(-c3ccc(O)cc3)coc2c1 [7-O—N,N-diethyl-aminoacetyl daidzein hydrochloride] |  |  |  |  |  |  |  |  |  |  |  |  | solubility, in words ([2]; conclusion from table 1, methanol 25°C): higher solubility; solubility (solvent equilibrium experiment) ([2]; hydrochloride): 25 mg/g; antithrombotic effect, in words (rat in vitro thrombosis; conclusion from table 2 and table 3 (oral and in vitro administration, rat)): good antithrombotic effect |
| CCN(CC)CC(=O)Oc1ccc2c(=O)c(-c3ccc(O)cc3)coc2c1 |  | 10.7 ± 1.96 | 8.17 ± 1.54 | 14.9 ± 1.27 | 6.29 ± 1.31 | 20.6 ± 5.5 | 485.4 | 33.6 ± 11.1 | 297.6 | 35.1 ± 6.6 | 26.7 ± 4.8 | 44.3 | antithrombotic effect after oral administration, in words (thrombus): significant efficacy; antithrombotic effect after oral administration, in words [1]: significant efficacy; effect on hypoxia tolerance time, in words [3]: significantly prolong; Prolongation rates (survival time) ([3]; 36 mg/kg intraperitoneally): 56%; effect on acute ischemia tolerance time, in words (decapitated mice): significantly prolong |
| CN(C)CCCC(=O)Oc1ccc2c(=O)c(-c3ccc(O)cc3)coc2c1 [USP compound, 7-O—N,N-dimethyl-aminobutyryl daidzein] |  | 11.8 ± 2.01 | 7.31 ± 1.72 | 14.1 ± 3.84 | 6.37 ± 1.72 | 25.7 ± 7.7 | 389.1 | 35.5 ± 8.2 | 281.7 | 24.6 ± 5.7 | 23.5 ± 7.2 | 27 | Prolongation rates (survival time) ([3]; 36 mg/kg intraperitoneally): 9.3% |
| O=C(CCl)Oc1ccc2c(=O)c(-c3ccc(O)cc3)coc2c1 [7-O-chloroacetyl daidzein] | 17.6 |  |  |  |  |  |  |  |  |  |  |  |  |
| CCN(CC)CC(=O)Oc1ccc2c(=O)c(-c3ccc(O)cc3)coc2c1 [7-O-N,N-diethyl-aminoacetyl daidzein, 7-O—N,N-diethyl-aminoacetyl daidzein] | 16.3 |  |  |  |  |  |  |  |  |  |  |  |  |
| CC(=O)Oc1ccccc1C(=O)O [Acetylsalicylic acid, acetylsalicylic acid] |  |  |  |  |  |  |  |  |  |  |  |  | inhibition at 1.46 mg/kg [4]: 32.1%; inhibition at 45 mg/kg (rat in vitro thrombosis; po, rat, 45 mg/kg, positive control, read-out: Thrombosis inhibition rates): 58.7%; Wet weights of thrombus (rat in vitro thrombosis; rat, 45 mg/kg, positive control, n = 10, saline group 30.18 ± 3.12): 11.38 ± 1.47 mg |
| CCN(CC)CC(=O)Oc1ccc(-c2coc3cc(O)ccc3c2=O)cc1 [4-substituted daidzein] |  | 14.1 ± 2.17 | 7.25 ± 1.34 | 14.7 ± 2.02 | 6.44 ± 1.71 | 29.3 ± 5.7 | 341.3 | 30.3 ± 9.4 | 330.0 | 21.1 ± 6.4 | 20.3 ± 8.1 | 9.7 |  |
